Measured values reported in the OligoGym collection.
Where “and” joins values, the source holds several entries; their conditions need not be identical. Equal values may be shown once. After the bases stand the sugars from the 5' end (letter, count) and the backbone: PS all phosphorothioate, else s phosphorothioate and o phosphodiester by linkage. Methylation of C is not given here. e = 2'-O-(2-methoxyethyl) (MOE); k = constrained ethyl (cEt); d = 2'-deoxy (DNA); m = 2'-O-methyl

Target: HSD17B13
Details: ASO, HepaRG

Row | Sequence | target mRNA inhibition (1 µM) | further results
1 | CTCTGGGACCAAGGAT (sugars k3 d10 k3, PS) | 51% | –
2 | AGCTGAGTGGATTACA (sugars k3 d10 k3, PS) | 29% | –
3 | TTATAACTACAAGAGG (sugars k3 d1 m1 d8 k3, PS) | 58% | –
4 | ATTTATTTGCTGGTCC (sugars k3 d10 k3, PS) | 47% | –
5 | ATTGTTAGCTAAGGGA (sugars k3 d10 k3, PS) | 22% | –
6 | GGGTCCATTGTTTCTT (sugars k3 d10 k3, PS) | 21% | –
7 | GTGTTTACAAGTAAGA (sugars k3 d10 k3, PS) | 79% | –
8 | TAAAATAGAGTCGGTC (sugars k3 d10 k3, PS) | 81% | target mRNA inhibition (0.02 µM): 1%; target mRNA inhibition (0.078 µM): 9%; target mRNA inhibition (0.313 µM): 47%; target mRNA inhibition (1.25 µM): 80%; target mRNA inhibition (5 µM): 90%
9 | ATTGTCTAAACATCTC (sugars k3 d9 k3 e1, PS) | 71% | –
10 | ACACUAATATTGAGGC (sugars k3 d1 m1 d8 k3, PS) | 43% | –
11 | GATTAAGCAGAATTGT (sugars k3 d9 k3 e1, PS) | 28% | –
12 | CCAAAAATCAGCCACT (sugars k3 d10 k3, PS) | 0% | –
13 | AACAGTTTAGATTGCA (sugars k3 d10 k3, PS) | 71% | –
14 | GTAAATTCTTGCTATC (sugars k3 d10 k3, PS) | 40% | –
15 | TTAGUTAGAATAGTCT (sugars k3 d1 m1 d8 k3, PS) | 35% | –
16 | TACATTAGCAAGCTAA (sugars k3 d10 k3, PS) | 29% | –
17 | TAAGGAGTAGTGGAGC (sugars k3 d10 k3, PS) | 18% | –
18 | GTATTTCGCTACTGTA (sugars k3 d10 k3, PS) | 76% | target mRNA inhibition (0.02 µM): 0%; target mRNA inhibition (0.078 µM): 0%; target mRNA inhibition (0.313 µM): 24%; target mRNA inhibition (1.25 µM): 64%; target mRNA inhibition (5 µM): 86%
19 | ATCTAACTAACCTGAC (sugars k3 d10 k3, PS) | 0% | –
20 | GTGACATAACTACTTC (sugars k3 d10 k3, PS) | 68% | –
21 | TGACAACAGAGTTCTG (sugars k3 d10 k3, PS) | 11% | –
22 | TGTGUTCTTGTTGATA (sugars k3 d1 m1 d8 k3, PS) | 41% | –
23 | AATCGCTGCTTAGTTC (sugars k3 d10 k3, PS) | 41% | –

Row | Sequence | target mRNA inhibition (1 µM) | further results
24 | GAGCTAGACAATTGCA (sugars k3 d10 k3, PS) | 73% | –
25 | TTCTATTAGTTGGCCT (sugars k3 d10 k3, PS) | 28% | –
26 | TAAACCTTCCCTGTGT (sugars kkdddddddddkekek, PS) | 9% | –
27 | CACTGATTTAGTTGGT (sugars k3 d10 k3, PS) | 66% | –
28 | CTTAAGGATCATTGCA (sugars k3 d10 k3, PS) | 29% | –
29 | CTTTAGTCAACAGTAC (sugars k3 d10 k3, PS) | 12% | –
30 | GTAATAGCCAGTACAG (sugars k3 d10 k3, PS) | 77% | target mRNA inhibition (0.02 µM): 0%; target mRNA inhibition (0.078 µM): 9%; target mRNA inhibition (0.313 µM): 45%; target mRNA inhibition (1.25 µM): 69%; target mRNA inhibition (5 µM): 84%
31 | TTGAGTAGTGTAAGCT (sugars k3 d9 k3 e1, PS) | 40% | –
32 | TGGAGGAAAGCTTCAA (sugars k3 d10 k3, PS) | 10% | –
33 | TTATGATAATTTGGTG (sugars k3 d10 k3, PS) | 0% | –
34 | CGATAGATCTCTTCTC (sugars k3 d10 k3, PS) | 15% | –
35 | TATTAGAAGTCAGCCC (sugars kkdddddddddkekek, PS) | 36% | –
36 | GTTTCTTATGTAATAG (sugars kkkddddkddddkkke, PS) | 44% | –
37 | TTTTATTGGGCCCAAT (sugars k3 d10 k3, PS) | 18% | –
38 | AGTTGCACCGTTTTGG (sugars kkdddddddddkekek, PS) | 41% | –
39 | GCCATAATCTGTGATT (sugars k3 d10 k3, PS) | 0% | –
40 | AAACTTGATCTCTTAG (sugars k3 d10 k3, PS) | 61% | –
41 | TTATGTAATAGCCAGT (sugars k3 d1 m1 d8 k3, PS) | 56% | –
42 | AGACTAAGGGACCAGG (sugars k3 d10 k3, PS) | 80% | target mRNA inhibition (0.02 µM): 22%; target mRNA inhibition (0.078 µM): 24%; target mRNA inhibition (0.313 µM): 56%; target mRNA inhibition (1.25 µM): 90%; target mRNA inhibition (5 µM): 94%
43 | GCTAGTGCCAAACCAA (sugars kkdddddddddkekek, PS) | 62% | –
44 | TATAGTTATCTTCTCA (sugars kkdddddddddkekek, PS) | 45% | –
45 | CTAGGGAAATCTTTCA (sugars k3 d1 m1 d8 k3, PS) | 19% | –
46 | CATTCGGCTAGGCGCG (sugars k3 d10 k3, PS) | 46% | –

Row | Sequence | target mRNA inhibition (1 µM) | further results
47 | CACAAGTAAGGTAAAG (sugars kkdddddddddkekek, PS) | 38% | –
48 | ATTTTTAATACGACTT (sugars k3 d10 k3, PS) | 35% | –
49 | GCTAAAAGCTCACCAA (sugars k3 d10 k3, PS) | 26% | –
50 | TAAGTTACCAGAGCAT (sugars k3 d10 k3, PS) | 77% | target mRNA inhibition (0.02 µM): 0%; target mRNA inhibition (0.078 µM): 0%; target mRNA inhibition (0.313 µM): 30%; target mRNA inhibition (1.25 µM): 71%; target mRNA inhibition (5 µM): 91%
51 | TTCACCAACGACTCCA (sugars k3 d10 k3, PS) | 62% | –
52 | TCGGCTGGATATACTG (sugars k3 d10 k3, PS) | 23% | –
53 | ACAAGATTAGTCTTGA (sugars k3 d10 k3, PS) | 45% | –
54 | TTAGTATAGTTATCTT (sugars k3 d9 k3 e1, PS) | 45% | –
55 | CTTAGGAAAGCTCATG (sugars k3 d10 k3, PS) | 0% | –
56 | TTCTGTGGCATGGCTA (sugars k3 d9 k3 e1, PS) | 59% | –
57 | TGCTCCATAATAATAG (sugars k3 d10 k3, PS) | 35% | –
58 | CTTGAGAGTGATTGCC (sugars k3 d10 k3, PS) | 64% | –
59 | AATCCTATGCAAATTC (sugars k3 d10 k3, PS) | 42% | –
60 | GTCAAAAACCGTCAAA (sugars k3 d10 k3, PS) | 39% | –
61 | AACATAGGCTTAGTGT (sugars k3 d10 k3, PS) | 18% | –
62 | TCTCCATCATCGATGG (sugars k3 d10 k3, PS) | 24% | –
63 | GATGAGAGTCTTTCTT (sugars k3 d10 k3, PS) | 26% | –
64 | CAGTCCTTGTGTAGTC (sugars k3 d10 k3, PS) | 70% | target mRNA inhibition (0.02 µM): 18%; target mRNA inhibition (0.078 µM): 21%; target mRNA inhibition (0.313 µM): 49%; target mRNA inhibition (1.25 µM): 79%; target mRNA inhibition (5 µM): 95%
65 | GCTCCATAATAATAGC (sugars kkdddddddddkekek, PS) | 15% | –
66 | AACAUCTCTGGGACCA (sugars k3 d1 m1 d8 k3, PS) | 64% | –
67 | GATCTAAAACTGAAGG (sugars k3 d10 k3, PS) | 44% | –
68 | AGTCATATTGAAAATC (sugars k3 d10 k3, PS) | 39% | –
69 | TTTAGTCAGGTAGAGT (sugars k3 d10 k3, PS) | 30% | –

Row | Sequence | target mRNA inhibition (1 µM) | further results
70 | AAACATCTCTGGGACC (sugars k3 d1 m1 d8 k3, PS) | 66% | –
71 | TGTGTAGTCCTAGGGA (sugars k3 d10 k3, PS) | 50% | –
72 | GTAATCAGTTTTCCTC (sugars k3 d10 k3, PS) | 79% | target mRNA inhibition (0.02 µM): 0%; target mRNA inhibition (0.078 µM): 0%; target mRNA inhibition (0.313 µM): 11%; target mRNA inhibition (1.25 µM): 36%; target mRNA inhibition (5 µM): 73%
73 | TACCTTATTAATATCC (sugars k3 d10 k3, PS) | 54% | –
74 | GTATGTTTATGTAAGC (sugars k3 d1 m1 d8 k3, PS) | 66% | target mRNA inhibition (0.02 µM): 0%; target mRNA inhibition (0.078 µM): 0%; target mRNA inhibition (0.313 µM): 10%; target mRNA inhibition (1.25 µM): 72%; target mRNA inhibition (5 µM): 90%
75 | TCATAGTGGACTTCAT (sugars k3 d9 k3 e1, PS) | 54% | –
76 | TTGCAGTTATTAGAAG (sugars kkdddddddddkekek, PS) | 27% | –
77 | TCCTGTGTTAGCTTTA (sugars k3 d9 k3 e1, PS) | 75% and 50% | target mRNA inhibition (0.02 µM): 0%; target mRNA inhibition (0.078 µM): 0%; target mRNA inhibition (0.313 µM): 34%; target mRNA inhibition (1.25 µM): 50%; target mRNA inhibition (5 µM): 81%
78 | TTCCGTCTCACAATCT (sugars k3 d10 k3, PS) | 79% | target mRNA inhibition (0.02 µM): 10%; target mRNA inhibition (0.078 µM): 13%; target mRNA inhibition (0.313 µM): 49%; target mRNA inhibition (1.25 µM): 83%; target mRNA inhibition (5 µM): 80%
79 | AATTCACCTTGACTAA (sugars k3 d9 k3 e1, PS) | 16% | –
80 | AGCTATAGGTAGCTAA (sugars k3 d10 k3, PS) | 0% | –
81 | AGTTCTGATGTCAGAC (sugars k3 d10 k3, PS) | 40% | –
82 | CCTATTTGTAATATTG (sugars k3 d10 k3, PS) | 0% | –
83 | TCTCUTGACAATGGTT (sugars k3 d1 m1 d8 k3, PS) | 62% | –
84 | TTTTAGTCAGGTAGAG (sugars k3 d10 k3, PS) | 3% | –
85 | AGAGGATAGTCCATGC (sugars kkdddddddddkekek, PS) | 70% | –
86 | GTAGCTTTTGTCCACC (sugars k3 d10 k3, PS) | 63% | –
87 | CATAAAGCTGGATTGT (sugars k3 d10 k3, PS) | 0% | –
88 | GGTGGTAACGGTGATC (sugars k3 d1 m1 d8 k3, PS) | 35% | –
89 | TGCATCTTAAGATACC (sugars k3 d9 k3 e1, PS) | 37% | –
90 | AGCTAAGAGACACTTC (sugars k3 d10 k3, PS) | 41% | –
91 | TTCTAGGTCAGTAGAG (sugars k3 d10 k3, PS) | 58% | –
92 | CAGTTTTCCTCATGAT (sugars k3 d9 k3 e1, PS) | 65% | –
